In PMC11648915, “Identification and development of TRPM4 antagonists to counteract neuronal excitotoxicity” (iScience, 2024):
Several values for one entry are separate records, joined by “and”; a condition that tells them apart may be missing. Equal values may be shown once. Read-outs that look alike come from different tables or passages of the source.

Key:
human TRPM4 = human TRPM4 (Homo sapiens, UniProt Q8TD43); assay: QPatch automated patch clamp on TRPM4-expressing HEK293 cells; type: cell-based; details: hsTRPM4-expressing HEK293 cells; for EC50: read-out: TRPM4 EC50 (potentiator activity)
Protocol: QPatchHTX, an automated electrophysiology platform, was used in single hole mode. One day before use human TRPM4- or TRPM5-expressing HEK293 cells were seeded in a T75 flask at a density of 53k cells per cm^2 and at passages < 23. […] The extracellular solution was (in mM): CaCl2 (7), MgCl2 (2), KCl (5), HEPES (10), NaCl (70), NMDG (70); pH 7.4 with NaOH. The intracellular solution was (in mM): HEPES (10), NMDG (100), NaCl (50), EGTA (20), MgCl2 (1), CaCl2 (21); pH 7.2 with HCl. […] This protocol was repeated every 7 seconds. […] FFA was used as reference compound and applied cumulatively with each concentration incubating at a minimum of 20 voltage protocol runs (140 seconds) with the current after addition of FFA being calculated as full block. […] Each compound was measured at least 3 time independently.

human TRPM5 = target: T1, human TRPM5 (Homo sapiens, UniProt Q9NZQ8); assay: QPatch automated patch clamp on TRPM5-expressing HEK293 cells; type: cell-based; details: hsTRPM5-expressing HEK293 cells
T1 sequence (Q9NZQ8 1-1165): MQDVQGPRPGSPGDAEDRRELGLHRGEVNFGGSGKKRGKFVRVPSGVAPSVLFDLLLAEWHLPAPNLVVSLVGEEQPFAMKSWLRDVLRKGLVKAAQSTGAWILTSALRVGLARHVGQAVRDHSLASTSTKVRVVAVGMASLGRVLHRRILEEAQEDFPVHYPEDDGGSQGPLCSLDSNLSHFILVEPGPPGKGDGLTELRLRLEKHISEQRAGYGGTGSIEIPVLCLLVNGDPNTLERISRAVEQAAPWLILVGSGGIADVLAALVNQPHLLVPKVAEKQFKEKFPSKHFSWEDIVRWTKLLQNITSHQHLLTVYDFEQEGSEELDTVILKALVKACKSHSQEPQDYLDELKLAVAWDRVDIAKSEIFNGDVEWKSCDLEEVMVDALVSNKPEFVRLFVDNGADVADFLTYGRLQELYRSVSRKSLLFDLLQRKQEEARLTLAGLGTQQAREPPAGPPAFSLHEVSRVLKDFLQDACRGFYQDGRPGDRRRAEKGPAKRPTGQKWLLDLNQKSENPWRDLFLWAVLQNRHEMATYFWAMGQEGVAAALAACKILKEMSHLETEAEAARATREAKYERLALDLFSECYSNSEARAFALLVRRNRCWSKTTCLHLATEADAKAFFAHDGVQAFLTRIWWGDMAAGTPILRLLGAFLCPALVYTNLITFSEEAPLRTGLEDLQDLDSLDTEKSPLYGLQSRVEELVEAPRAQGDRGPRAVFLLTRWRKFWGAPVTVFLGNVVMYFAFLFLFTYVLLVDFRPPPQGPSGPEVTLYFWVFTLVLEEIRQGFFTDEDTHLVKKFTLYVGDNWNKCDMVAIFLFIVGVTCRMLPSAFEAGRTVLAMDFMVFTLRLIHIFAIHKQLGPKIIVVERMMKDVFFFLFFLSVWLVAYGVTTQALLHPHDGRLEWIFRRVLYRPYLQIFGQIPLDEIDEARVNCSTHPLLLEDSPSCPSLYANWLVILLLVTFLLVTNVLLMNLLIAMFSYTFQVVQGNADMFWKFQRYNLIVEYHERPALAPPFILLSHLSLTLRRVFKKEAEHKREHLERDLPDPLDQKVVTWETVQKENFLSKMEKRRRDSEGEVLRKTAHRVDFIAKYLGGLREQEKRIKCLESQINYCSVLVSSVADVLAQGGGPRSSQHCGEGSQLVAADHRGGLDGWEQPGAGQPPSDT
From the text: The counter screening phase involved the inclusion of hsTRPM5-expressing HEK293 cells, as closest homologue, and the parental HEK293 cell line to evaluate selectivity. […] Based on categorization of biological activity, mass spectrometry quality control, and aspects of medicinal chemistry, we prioritized 144 selective hsTRPM4 compounds. These compounds were then subjected to automated patch clamp electrophysiology measurements (QPatch[58]) to evaluate their activity profiles and IC50 values (Figures 1A, S1, and S2).
QPatchHTX, an automated electrophysiology platform, was used in single hole mode. One day before use human TRPM4- or TRPM5-expressing HEK293 cells were seeded in a T75 flask at a density of 53k cells per cm^2 and at passages < 23. For QPatch assays, cells were harvested and re-suspended in SFM (Gibco, 11686029). The extracellular solution was (in mM): CaCl2 (7), MgCl2 (2), KCl (5), HEPES (10), NaCl (70), NMDG (70); pH 7.4 with NaOH. The intracellular solution was (in mM): HEPES (10), NMDG (100), NaCl (50), EGTA (20), MgCl2 (1), CaCl2 (21); pH 7.2 with HCl. After break-in, channels were consistently open and current through the channels could be observed at a voltage ramp from –100 mV to +100 mV over 500 ms. This protocol was repeated every 7 seconds. After saline and vehicle application, the channel was desensitized and residual current was used as baseline. FFA was used as reference compound and applied cumulatively with each concentration incubating at a minimum of 20 voltage protocol runs (140 seconds) with the current after addition of FFA being calculated as full block. […] Each compound was measured at least 3 time independently.

[1] = In vivo pharmacokinetics after single i.p. or i.v. dose; details: female, C57BL/6J, mouse
Protocol: Next, to assess in vivo availability of the Series 1–3 compounds, we evaluated drug metabolism and pharmacokinetics (DMPK). We measured compound concentrations in plasma, heart, and brain at several time points after intraperitoneal (i.p.) or intravenous (i.v.) single-dose injections.
Half-life and bioavailability were calculated by noncompartmental analysis using the R package PK[84] (v1.3-6).

Sequence of human TRPM4 (Q8TD43 whole entry): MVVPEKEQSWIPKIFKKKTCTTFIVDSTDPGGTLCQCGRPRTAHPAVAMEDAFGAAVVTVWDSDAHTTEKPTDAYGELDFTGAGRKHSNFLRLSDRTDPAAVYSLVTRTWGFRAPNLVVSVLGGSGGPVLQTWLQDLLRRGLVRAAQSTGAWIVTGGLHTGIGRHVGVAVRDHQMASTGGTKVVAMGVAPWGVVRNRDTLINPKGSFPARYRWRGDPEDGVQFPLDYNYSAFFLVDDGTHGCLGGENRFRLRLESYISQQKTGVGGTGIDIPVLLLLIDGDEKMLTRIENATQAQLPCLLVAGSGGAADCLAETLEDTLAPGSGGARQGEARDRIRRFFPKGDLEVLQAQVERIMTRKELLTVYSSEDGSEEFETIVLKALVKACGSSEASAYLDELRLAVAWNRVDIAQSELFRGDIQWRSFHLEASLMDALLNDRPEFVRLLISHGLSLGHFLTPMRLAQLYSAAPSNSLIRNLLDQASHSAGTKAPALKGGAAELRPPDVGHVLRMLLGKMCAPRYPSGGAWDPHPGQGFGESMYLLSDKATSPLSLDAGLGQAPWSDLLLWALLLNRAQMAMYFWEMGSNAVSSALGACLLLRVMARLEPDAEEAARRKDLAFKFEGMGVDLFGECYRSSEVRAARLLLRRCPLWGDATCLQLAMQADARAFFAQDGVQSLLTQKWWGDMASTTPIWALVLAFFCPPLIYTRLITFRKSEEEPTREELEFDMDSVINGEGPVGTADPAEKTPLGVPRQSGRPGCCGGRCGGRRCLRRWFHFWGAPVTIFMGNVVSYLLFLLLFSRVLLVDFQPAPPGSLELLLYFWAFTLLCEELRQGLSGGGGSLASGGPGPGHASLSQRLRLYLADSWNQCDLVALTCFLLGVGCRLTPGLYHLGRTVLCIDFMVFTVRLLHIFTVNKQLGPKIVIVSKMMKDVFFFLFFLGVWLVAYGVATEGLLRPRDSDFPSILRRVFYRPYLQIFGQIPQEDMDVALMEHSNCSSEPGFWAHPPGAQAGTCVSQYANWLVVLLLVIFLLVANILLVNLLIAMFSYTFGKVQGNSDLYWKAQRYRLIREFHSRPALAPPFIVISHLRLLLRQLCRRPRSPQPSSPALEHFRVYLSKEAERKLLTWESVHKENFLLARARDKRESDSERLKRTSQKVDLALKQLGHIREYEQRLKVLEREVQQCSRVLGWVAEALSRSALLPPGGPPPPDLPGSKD

c1ccc(-c2ccccc2NCc2nc3ccccc3o2)cc1 [CMP009]
IC50 (human TRPM4): 550 nM

O=c1cc(NC2CCCCCC2)nc2ccc(Cl)cn12 [CMP111]
IC50 (human TRPM4): 170 nM and 110 nM

O=C(O)c1cc(Br)ccc1NS(=O)(=O)c1ccc(Cl)cc1 [CMP116]
IC50 (human TRPM4): 1870 nM
IC50 (human TRPM5): > 30000 nM

c1ccc(CSCc2cn3ccsc3n2)cc1 [CMP133]
IC50 (human TRPM4): 280 nM

Cc1noc(-c2csc(S(=O)(=O)Nc3ccccc3C(F)(F)F)c2)c1C [CMP157]
IC50 (human TRPM4): 360 nM
half-life ([1]; brain, ip, read-out: Brain half-life (converted)): 3.9 h
half-life ([1]; brain, iv, read-out: Brain half-life (converted)): 4.2 h
half-life ([1]; heart, ip, read-out: Heart half-life (converted)): 3.3 h
half-life ([1]; heart, iv, read-out: Heart half-life (converted)): 3.5 h
half-life ([1]; plasma, ip, read-out: Plasma half-life (converted)): 2.9 h
half-life ([1]; plasma, iv, read-out: Plasma half-life (converted)): 2.8 h

Nc1nnc(Cc2cccc(Br)c2)s1 [CMP225]
EC50 (human TRPM4): 1340 nM

Oc1ccccc1NCc1nc2ccccc2o1 [CMP311]
EC50 (human TRPM4): 3240 nM

COc1ccccc1-c1ccccc1NCc1nc2ccccc2o1 [CMP320]
IC50 (human TRPM4): 820 nM
